Test results taken from patent US10597383B2, “Bicyclic proline compounds” (Genentech, Inc., priority 2016, dated 2020).

Each molecule was assayed against human TRPA1 (Homo sapiens (Human), UniProt O75762) (assay: hTRPA1 CHO Ca2+ AUC EVO (IC50); FLIPR Tetra block of cinnamaldehyde induced calcium influx). Conditions: Table 1; CHO cells expressing TRPA1; 75 uM cinnamaldehyde (~EC80) as agonist.
Format: cell-based
Protocol: IC50 ([…]) of compounds on the human and rat TRPA1 channels were determined using a FLIPR Tetra instrument. CHO cells expressing TRPA1 were plated into 384-well plates, incubated overnight at 37° C., and loaded with BD calcium indicator dye for 1 hr at 37° C. followed by 15 minutes. at room temperature. The assay buffer was Hank's Balanced Salt Solution (HBSS) containing 20 mM HEPES (pH readjusted to 7.4) along with 0.02% BSA.
Following dye load and plate cool down, compounds were added to the cells using FLIPR Tetra. Plates were then incubated with compounds for 20 minutes at room temperature prior to adding agonist. Following this incubation, ˜EC80 concentration of cinnamaldehyde (75 uM for human TRPA1 and 45 uM for rat TRPA1) was added to active the channels and block of cinnamaldehyde induced calcium influx was measured.
IC50 values were fit with a standard Hill function, keeping the Hill coefficient (n) fixed to 1.5. Fixing the Hill coefficient will generally reduce variability of the IC50 determination. The IC50 values were individually examined to make sure the MIN and MAX points were set correctly prior to validation of the results.

Chain of human TRPA1 (O75762 whole entry): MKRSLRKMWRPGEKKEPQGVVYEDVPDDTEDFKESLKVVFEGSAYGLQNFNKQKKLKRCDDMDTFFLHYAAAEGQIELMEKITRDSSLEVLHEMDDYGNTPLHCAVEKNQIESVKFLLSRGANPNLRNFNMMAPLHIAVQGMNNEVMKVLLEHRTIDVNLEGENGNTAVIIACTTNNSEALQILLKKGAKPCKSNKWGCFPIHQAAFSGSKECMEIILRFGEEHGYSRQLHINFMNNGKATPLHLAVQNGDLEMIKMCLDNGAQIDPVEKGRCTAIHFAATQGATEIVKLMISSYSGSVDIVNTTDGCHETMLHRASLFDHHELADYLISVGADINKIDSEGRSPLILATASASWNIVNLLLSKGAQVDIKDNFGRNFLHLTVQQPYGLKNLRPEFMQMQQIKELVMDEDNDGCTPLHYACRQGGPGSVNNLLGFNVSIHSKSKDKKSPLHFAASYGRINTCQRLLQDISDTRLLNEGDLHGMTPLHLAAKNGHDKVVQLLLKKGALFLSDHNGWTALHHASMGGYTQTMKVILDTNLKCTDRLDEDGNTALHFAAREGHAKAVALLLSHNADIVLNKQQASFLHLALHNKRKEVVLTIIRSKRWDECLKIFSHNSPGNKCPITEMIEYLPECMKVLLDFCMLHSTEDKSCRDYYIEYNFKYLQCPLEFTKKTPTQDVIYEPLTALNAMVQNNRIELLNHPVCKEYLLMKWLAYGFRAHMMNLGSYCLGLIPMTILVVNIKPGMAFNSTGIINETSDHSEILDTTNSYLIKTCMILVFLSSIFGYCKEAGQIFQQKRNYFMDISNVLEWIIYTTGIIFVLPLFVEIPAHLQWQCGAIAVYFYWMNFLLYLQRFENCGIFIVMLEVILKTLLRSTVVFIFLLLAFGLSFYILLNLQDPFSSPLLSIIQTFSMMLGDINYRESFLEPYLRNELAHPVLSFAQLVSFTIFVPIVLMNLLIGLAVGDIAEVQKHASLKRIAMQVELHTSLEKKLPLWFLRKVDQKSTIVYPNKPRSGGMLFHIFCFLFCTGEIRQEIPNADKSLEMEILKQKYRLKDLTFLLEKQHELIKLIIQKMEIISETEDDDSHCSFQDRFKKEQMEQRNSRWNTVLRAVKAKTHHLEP

| SMILES | IC50 [nM] |
| --- | --- |
| O=C(NCc1cc(-c2cnc(C(F)(F)F)nc2)cc(C2CC2)n1)[C@@H]1C2CC(C2)N1S(=O)(=O)c1ccc(F)cc1 [(2S)-N-[[6-cyclopropyl-4-[2-(trifluoromethyl)pyrimidin-5-yl]-2-pyridyl]methyl]-3-(4-fluorophenyl)sulfonyl-3-azabicyclo[2.1.1]hexane-2-carboxamide] | 7.24 |
| O=C(NCc1cc(-c2cnc(C(F)(F)F)nc2)ccc1F)[C@@H]1C2CC(C2)N1S(=O)(=O)c1ccc(F)cc1 [(2S)-3-(4-fluorophenyl)sulfonyl-N-[[2-fluoro-5-[2-(trifluoromethyl)pyrimidin-5-yl]phenyl]methyl]-3-azabicyclo[2.1.1]hexane-2-carboxamide] | 9.89 |
| O=C(NCc1cc(-c2cnc(C(F)(F)F)nc2)ncc1C(F)F)[C@@H]1C2CC(C2)N1S(=O)(=O)c1ccc(F)cc1 [(2S)-N-[[5-(difluoromethyl)-2-[2-(trifluoromethyl)pyrimidin-5-yl]-4-pyridyl]methyl]-3-(4-fluorophenyl)sulfonyl-3-azabicyclo[2.1.1]hexane-2-carboxamide] | 9.92 |
| O=C(NCc1cc(-c2cnc(C(F)(F)F)nc2)ncc1C(F)(F)F)[C@@H]1C2CC(C2)N1S(=O)(=O)c1cc2cc(F)ccc2o1 [(2S)-3-(5-fluorobenzofuran-2-yl)sulfonyl-N-[[5-(trifluoromethyl)-2-[2-(trifluoromethyl)pyrimidin-5-yl]-4-pyridyl]methyl]-3-azabicyclo[2.1.1]hexane-2-carboxamide] | 1.85 |
| O=C(NCc1cc(-c2cnc(C(F)(F)F)nc2)ncc1C(F)(F)F)[C@@H]1C2CC(C2)N1S(=O)(=O)c1ccc(F)cc1 [(2S)-3-(4-fluorophenyl)sulfonyl-N-[[5-(trifluoromethyl)-2-[2-(trifluoromethyl)pyrimidin-5-yl]-4-pyridyl]methyl]-3-azabicyclo[2.1.1]hexane-2-carboxamide] | 2.61 |
| O=C(NCc1cc(-c2cnc(C(F)(F)F)nc2)ncc1Cl)[C@@H]1C2CC(C2)N1S(=O)(=O)c1ccc(F)c(F)c1 [(2S)-N-[[5-chloro-2-[2-(trifluoromethyl)pyrimidin-5-yl]-4-pyridyl]methyl]-3-(3,4-difluorophenyl)sulfonyl-3-azabicyclo[2.1.1]hexane-2-carboxamide] | 1.55 |
| O=C(NCc1cc(-c2cnc(C(F)(F)F)nc2)ncc1Br)[C@@H]1C2CC(C2)N1S(=O)(=O)c1ccc(F)cc1 [(2S)-N-[[5-bromo-2-[2-(trifluoromethyl)pyrimidin-5-yl]-4-pyridyl]methyl]-3-(4-fluorophenyl)sulfonyl-3-azabicyclo[2.1.1]hexane-2-carboxamide] | 3.82 |
| O=C(NCc1cc(-c2cnc(C(F)(F)F)nc2)c(F)cn1)[C@@H]1C2CC(C2)N1S(=O)(=O)c1cc2cc(F)ccc2o1 | 1.08 |

Same assay, conditions: Table 3; CHO cells expressing TRPA1; 75 uM cinnamaldehyde (~EC80) as agonist

| SMILES | IC50 [nM] |
| --- | --- |
| O=C(NCc1cc(F)cc(-c2cnc(C(F)(F)F)nc2)c1)[C@@H]1C2CC(C2)N1S(=O)(=O)c1ccc(F)cc1 [compound 19, (2S)-3-(4-fluorophenyl)sulfonyl-N-[[3-fluoro-5-[2-(trifluoromethyl)pyrimidin-5-yl]phenyl]methyl]-3-azabicyclo[2.1.1]hexane-2-carboxamide] | 8.97 |
| O=C(NCc1ccnc(-c2cnc(C(F)(F)F)nc2)c1)[C@@H]1C2CC(C2)N1S(=O)(=O)c1ccc(F)cc1 [compound 4, (2S)-3-(4-fluorophenyl)sulfonyl-N-[[2-[2-(trifluoromethyl)pyrimidin-5-yl]-4-pyridyl]methyl]-3-azabicyclo[2.1.1]hexane-2-carboxamide] | 36.4 |
| O=C(NCc1cc(-c2cnc(C(F)(F)F)nc2)ncn1)[C@@H]1C2CC(C2)N1S(=O)(=O)c1ccc(F)cc1 [compound 1, (2S)-3-(4-fluorophenyl)sulfonyl-N-[[6-[2-(trifluoromethyl)pyrimidin-5-yl]pyrimidin-4-yl]methyl]-3-azabicyclo[2.1.1]hexane-2-carboxamide] | 42.9 |
| O=C(NCc1cc(-c2cnc(C(F)(F)F)nc2)ncc1Cl)[C@@H]1C2CC(C2)N1S(=O)(=O)c1ccc(F)c(F)c1 [compound 13, (2S)-N-[[5-chloro-2-[2-(trifluoromethyl)pyrimidin-5-yl]-4-pyridyl]methyl]-3-(3,4-difluorophenyl)sulfonyl-3-azabicyclo[2.1.1]hexane-2-carboxamide] | 1.55 |
| Cn1nc(C(F)(F)F)cc1-c1ccc(F)c(CNC(=O)[C@@H]2C3CC(C3)N2S(=O)(=O)c2ccc(F)cc2)c1 [compound 18, (2S)-N-[[2-fluoro-5-[2-methyl-5-(trifluoromethyl)pyrazol-3-yl]phenyl]methyl]-3-(4-fluorophenyl)sulfonyl-3-azabicyclo[2.1.1]hexane-2-carboxamide] | 15.7 |
| O=C(NCc1cc(-c2cnc(C(F)(F)F)nc2)ncc1Br)[C@@H]1C2CC(C2)N1S(=O)(=O)c1ccc(F)cc1 [compound 14, (2S)-N-[[5-bromo-2-[2-(trifluoromethyl)pyrimidin-5-yl]-4-pyridyl]methyl]-3-(4-fluorophenyl)sulfonyl-3-azabicyclo[2.1.1]hexane-2-carboxamide] | 3.82 |
| O=C(NCc1cc(-c2cnc(C(F)(F)F)nc2)ncc1OC(F)(F)F)[C@@H]1C2CC(C2)N1S(=O)(=O)c1ccc(F)cc1 [compound 15, (2S)-3-(4-fluorophenyl)sulfonyl-N-[[5-(trifluoromethoxy)-2-[2-(trifluoromethyl)pyrimidin-5-yl]-4-pyridyl]methyl]-3-azabicyclo[2.1.1]hexane-2-carboxamide] | 2.77 |
| O=C(NCc1cc(-c2cnc(C(F)(F)F)nc2)nc(C(F)(F)F)n1)[C@@H]1C2CC(C2)N1S(=O)(=O)c1ccc(F)cc1 [compound 30, (2S)-3-(4-fluorophenyl)sulfonyl-N-[[2-(trifluoromethyl)-6-[2-(trifluoromethyl)pyrimidin-5-yl]pyrimidin-4-yl]methyl]-3-azabicyclo[2.1.1]hexane-2-carboxamide] | 1.18 |
| O=C(NCc1cc(-c2ccc(C(F)(F)F)nc2)ncn1)[C@@H]1C2CC(C2)N1S(=O)(=O)c1ccc(F)cc1 [compound 3, (2S)-3-(4-fluorophenyl)sulfonyl-N-[[6-[6-(trifluoromethyl)-3-pyridyl]pyrimidin-4-yl]methyl]-3-azabicyclo[2.1.1]hexane-2-carboxamide] | 24.8 |
| O=C(NCc1cc(-c2cnc(C(F)(F)F)nc2)ncc1F)[C@@H]1C2CC(C2)N1S(=O)(=O)c1ccc(F)cc1 [compound 2, (2S)-3-(4-fluorophenyl)sulfonyl-N-[[5-fluoro-2-[2-(trifluoromethyl)pyrimidin-5-yl]-4-pyridyl]methyl]-3-azabicyclo[2.1.1]hexane-2-carboxamide] | 11.3 |
| O=C(NCc1cc(-c2cnc(C(F)(F)F)nc2)ncc1C(F)(F)F)[C@@H]1C2CC(C2)N1S(=O)(=O)c1cc2cc(F)ccc2o1 [compound 31, (2S)-3-(5-fluorobenzofuran-2-yl)sulfonyl-N-[[5-(trifluoromethyl)-2-[2-(trifluoromethyl)pyrimidin-5-yl]-4-pyridyl]methyl]-3-azabicyclo[2.1.1]hexane-2-carboxamide] | 1.85 |
| O=C(NCc1cn(-c2cnc(C(F)(F)F)nc2)nc1C(F)(F)F)[C@@H]1C2CC(C2)N1S(=O)(=O)c1ccc(F)cc1 [compound 29, (2S)-3-(4-fluorophenyl)sulfonyl-N-[[3-(trifluoromethyl)-1-[2-(trifluoromethyl)pyrimidin-5-yl]pyrazol-4-yl]methyl]-3-azabicyclo[2.1.1]hexane-2-carboxamide] | 4.84 |
| N#Cc1cnc(-c2cnc(C(F)(F)F)nc2)cc1CNC(=O)[C@@H]1C2CC(C2)N1S(=O)(=O)c1ccc(F)cc1 [compound 8, (2S)-N-[[5-cyano-2-[2-(trifluoromethyl)pyrimidin-5-yl]-4-pyridyl]methyl]-3-(4-fluorophenyl)sulfonyl-3-azabicyclo[2.1.1]hexane-2-carboxamide] | 16 |
